Source: patent publication US12365761B2, “Biodegradable ultra-pH sensitive polymers” (priority 2019, dated 2025)

System: TC-1 tumor model
Assay: PSC7A nanovaccine tumor therapy, TC-1 tumor model
Assay type: in vivo, C57BL/6 mice
Details: TC-1 model, s.c. at tail base, three injections, versus PBS control
From the text: The nanovaccine was made by physically mixing tumor specific antigenic peptides and PSC7A nanoparticles. Non-degradable PC7A based nanovaccines were used for comparison. […] Tumor growth was subsequently measured using a digital caliper and calculated as 0.5×length×width^2. Mice were sacrificed when the tumor volumes reached 2000 mm^3.
PSC7A nanoparticles were first produced and then mixed with tumor-specific antigenic peptides. Human papilloma virus (HPV) E6/E7-transfected TC-1 and murine B16-F10 melanoma tumor models were used. […] In the TC-1 model, E7 peptide antigen (E7p, […] (SEQ. No. 1)) was used. […] Most of the animals were lost within 30 days after tumor inoculation.

Sequence: GQAEPDRAHYNIVTFCCKCD [E7p]
- tumor growth inhibition: marginal tumor growth inhibition
